Series [1] deals with T. cruzi blood trypomastigotes of the Y strain. Description: in vivo anti-T. cruzi study (acute Chagas model). Set-up: species or system Trypanosoma cruzi. The following applies: BALB/c mice, 50 mg/kg/day oral for 14 days; for Number of Parasites (Chagas): peak of parasitemia; for % of Reduction (Chagas): reduction of parasitemia vs control.
The subject of series [2] is J774.1 murine macrophages. Description: nonspecific cytotoxicity on mammalian cells, MTT. The series is classed as cell-based. The following applies: for IC50: Mus musculus, J774.1, 48 h, MTT, read-out: IC50 ± SD (µM) Murine Macrophages; for SI J774.1/T. cruzi: ratio IC50 murine macrophages / IC50 T. cruzi epimastigotes; for SI J774.1/L. amazonensis: ratio IC50 murine macrophages / IC50 L. amazonensis promastigotes.

In series [3] the test system is L. infantum (MHOM/BR/2002/LPC-RPV) promastigotes. Description: in vitro anti-Leishmania activity, promastigotes, resazurin. The series is classed as cell-based, Leishmania infantum.
Series [4] has as its system L. amazonensis (promastigotes). Described as above. It counts as cell-based. The following applies: maximum dose tested 25 µM, read-out: IC50 ± %SD (µM) L. amazonensis.
Series [5] deals with T. cruzi epimastigotes, Tulahuen 2 strain (genotype TcVI). Description: in vitro anti-T. cruzi activity, epimastigote growth (absorbance 600 nm). The series is classed as cell-based, Trypanosoma cruzi. Here is the method: Control parasites were cultivated in 0.4% DMSO. Each concentration of the compound was evaluated in duplicate.
The subject of series [6] is promastigotes L. braziliensis/ L. amazonensis. In words: in vitro anti-Leishmania activity, promastigotes (Table 1S). The series is classed as cell-based. The following applies: read-out: IC50 ± %SD (µM) promastigotes L. braziliensis/ L. amazonensis.
In series [7] the test system is L. infantum .uy (parasites isolated from two dogs in the first Leishmaniasis outbreak in Uruguay). In words: in vitro activity against L. infantum isolated from dogs in Uruguay. The series is classed as cell-based, Leishmania infantum. Conditions: for IC50: Leishmania infantum, read-out: IC50 ± %SD (µM) L. infantum .uy. The protocol:
Compounds were dissolved in dimethylsulfoxide (DMSO).
For assessing the amastigote form of all Leishmania strains were cultured in the RPMI described above. Parasites were seeded at 1 × 10^6 cells/mL and at each time point counted at least five times to obtain a growth curve. […] Control conditions of parasites without drug (100% growth) and medium without parasites were included. After 72 h at 28 °C parasite viability was determined by the resazurin method described. Infection with L. infantum. THP-1 monocytes (ATCC®TIB-202™) were grown following ATCC recommendations and seeded at 30,000 cells/well onto 18-mm round glass coverslips in 12 wells. For stimulation cells were incubated with 100 nM of PMA for 48 h, PMA was washed and cells left with growth media for 24 h more after incubation with parasites. 30,000 parasites/well were added and left to interact. After 48 h, coverslips were washed with PBS, fixed with 95% (v/v) ethanol, and stained with Fluoroshield™ with DAPI (Sigma). Infectivity was assessed considering invasion and replication capacity counting infected cells and parasites per infected cell, respectively. Infectivity index calculation = (% of infected cells X (amastigotes per cell))/number of total counted cells. Image acquisition was made with a Leica TCS-SP5 laser scanning confocal microscope (Leica Microsystems GmbH, Wetzlar, Germany) using the LASAF v.2 software (Leica Microsystems, Wetzlar, Germany) and observed using a 356 nm laser excitation line and an emission bandwidth from 461 nm under a 20× water immersion objective. Further image analysis, including quantitation and processing of figures were made using Fiji (http://fiji.sc/).

Series [8] in a line: in vivo acute oral toxicity (OECD up and down). Conditions: male, B6D2F1, mouse, 2000 mg/kg.
Experimental: Briefly, healthy young adult male B6D2F1 mice (30 days old, 25 to 30 g) were used in this study. Initially, the compound was dissolved in the vehicle described above (3.4 section) and was administered at 2000 mg/kg, by orogastric cannula, to one animal. The animal was fasted, maintained, and observed for 48 h. If the mouse survives, another animal receives the same dose, and 48 h later, a third animal. If there are no toxicity signs the experiment is finished 14 days after administration, with the euthanasia of the animals according to the OECD guidelines. Observations of the general status of the organs were performed after sacrifice.
Series [9] concerns L. infantum, L. braziliensis, L. amazonensis promastigotes and T. cruzi epimastigotes. Description: phenotypic screening against parasites in vitro (overall statements).
Experimental: For the in vitro anti-T. cruzi activity, we used epimastigotes of the Tulahuen 2 strain (genotype TcVI) grown in an axenic milieu (BHI-Tryptose). Cells from a 5–7-days-old culture were inoculated in fresh culture milieu to give an initial concentration of 10^6 cells/mL. The absorbance at 600 nm of the cells in culture was measured every day. […] Control parasites were cultivated in 0.4% DMSO. Each concentration of the compound was evaluated in duplicate. At five days, the absorbance of the culture was measured and compared to the control and the IC50 values calculated for each compound using OriginLab8.5® sigmoidal regression.
The test system of series [10] is L. amazonensis (IFLA/BR/1967/PH8). In words: in vivo anti-Leishmania study in cutaneous mice model. Details: species or system Leishmania amazonensis. Conditions: BALB/c mice, 50 mg/kg oral.
Series [11] in a line: solubility (qualitative). It counts as physicochemical. The following applies: for solubility in the conditions of the mammalian cell assay, in words: maximum dose tested 25 µM.
For series [12], the system named is primary culture of macrophages from mice bone marrow. Description: cytotoxicity on primary culture of macrophages, MTT. The following applies: 25 µM, 48 h, compared with J774.1. It counts as cell-based.
Series [13] in a line: liver fraction stability study (TLC). It counts as in vitro ADME. Conditions: rat liver fractions, 400 µM, 37 °C, 4 h.
The test system of series [14] is L. infantum amastigotes in human macrophages (THP-1). In words: human macrophages infected with L. infantum (amastigotes), infectivity index. The series is classed as cell-based. The following applies: Leishmania infantum, two strains of L. infantum (reference strain and isolated from dogs).
Series [15] has as its system L. infantum .uy (parasites isolated from two dogs in the first Leishmaniasis outbreak in Uruguay). In words: in vitro activity against L. infantum isolated from dogs in Uruguay. It counts as cell-based, Leishmania infantum. The following applies: read-out: IC50± %SD (µM) promastigotes L. infantum uy*p/c.
[16] abbreviates: Leishmania infantum, promastigotes, maximum dose tested 25 µM, read-out: IC50 ± %SD (µM) L. infantum.
Setting [17] is: Trypanosoma cruzi, TULAHUEN, epimastigotes, maximum dose tested 25 µM, read-out: IC50 ± %SD (µM) T. cruzi.
The mark [18] stands for this setting: Trypanosoma cruzi, TULAHUEN, Table 1S, read-out: IC50 ± %SD (µM) epimastigotes T. cruzi.
The mark [19] stands for this setting: Table 1S, one value printed for p/c.
Setting [20] is: Table 1S, read-out: IC50 ± %SD (µM) promastigotes L. infantum.
Where [21] appears, read: Table 1S, read-out: IC50 ± %SD (µM) epimastigotes T. cruzi.

Read-outs that look alike come from different tables or passages of the source. Bounds are passed on as bounds.

Turning to `O=C(Cn1ccnc1[N+](=O)[O-])NCc1ccccc1` [Benznidazole, reference compound], in series [1], the “% of Survivals (Chagas)” value came out at 100%, the “Number of Parasites (Chagas)” value is “(0.01 ± 0.01) × 10^6 per mL blood” and the “% of Reduction (Chagas)” value came out at 96%. In [2], the IC50 was found to be 400 ± 4 µM and the “SI J774.1/T. cruzi” value was 57.
`C[C@]12CC[C@H]3[C@@H](CC=C4CC(O)CC[C@@]43C)[C@@H]1CC[C@@H]2C(=O)/C=C/c1ccccc1Cl` (stereo partly shown) [Compound 2] had a melting point of 149 to 151 °C. The “activity against Leishmania infantum from Fiocruz collection, in words” value in [3] is “active”. The IC50 in series [3] (setting [16]) was over 25 µM. Also, the IC50 in [4] came to 23 ± 5 µM. The IC50 in series [5] (setting [17]) is 12 ± 3 µM. Besides, the IC50 in series [6] came out at 23 ± 5 µM. In addition, in series [2], the IC50 was 100 ± 10 µM, the “SI J774.1/L. amazonensis” value was found to be 4 and the “SI J774.1/T. cruzi” value is 8. For the same molecule, in series [7], the “active against the strains isolated from Uruguayan dogs, in words” value is “not” and the IC50 was over 25 µM.
Molecule `C/C(=N\NC(N)=S)[C@H]1CC[C@H]2[C@@H]3CC=C4CC(O)CC[C@]4(C)[C@H]3CC[C@]12C` (stereo partly drawn) [Compound 8, 1-(3β-Hydroxy-pregn-5-ene-20E-ylidene)thiosemicarbazone] had an LD50 at 14 days in series [8] of over 2000 mg/kg. For the same molecule, the IC50 is 0.2 µM in series [9] (Trypanosoma cruzi, read-out: IC50 in vitro (abstract)); 0.2 ± 0.1 µM in series [3] (setting [16]); under 22 µM in series [4]; 1.2 ± 0.3 µM in series [5] (setting [17]); under 22 µM in series [6]; under 0.2 µM in series [14]. The IC50 in [2] was 50 ± 3 µM; in [7], 0.2 ± 0.1 µM. The “times more active than Miltefosine in vitro” value in series [9] (against Leishmania) is recorded as “five times more active”. Moreover, in series [9] (against T. cruzi), the “times more active than Nfx and Bnz in vitro” value is listed as 35. Moreover, the “antiparasitic activity (active: IC50<25 µM), in words” value in series [9] (all parasites/strains tested, maximum dose 25 µM) is listed as “consistently active against all strains”. In addition, the “% of Reduction (Leishmaniasis)” value in [10] is recorded as 27%. Also, in [10], the “% of Survivals (Leishmaniasis)” value stood at 100%. Moreover, in [10] (parasites in the lesion at the end of the experiment), the “Number of Parasites (Leishmaniasis)” value is reported as “(21 ± 4) × 10^6”. In addition, the “solubility in water, in words” value in [11] is “poor solubility in water”. Also, the “cytotoxicity on primary culture of macrophages, in words” value in [12] is reported as “the same results were obtained”. In addition, in series [13], the “metabolic stability in cytosolic and microsomal liver fraction” value is listed as “stable”. Moreover, the “% of Survivals (Chagas)” value in series [1] is 100%. Further, the “Number of Parasites (Chagas)” value in [1] is listed as “(0.14 ± 0.03) × 10^6 per mL blood”. The “% of Reduction (Chagas)” value in series [1] is recorded as 62%. Besides, in series [2], the “SI J774.1/L. amazonensis” value was over 2. Moreover, the “SI J774.1/L. infantum” value in series [2] (ratio IC50 murine macrophages / IC50 L. infantum promastigotes) is given as 250. For the same molecule, the “SI J774.1/T. cruzi” value in series [2] amounted to 42.
Molecule `C=CCNC(=S)N/N=C(\C)[C@H]1CC[C@H]2[C@@H]3CC=C4CC(O)CC[C@]4(C)[C@H]3CC[C@]12C` (stereo partly drawn) [Compound 9, 1-(3β-Hydroxy-pregn-5-ene-20E-ylidene)-4-Allylthiosemicarbazone] gave a melting point of 229 to 233 °C. The “solubility in the conditions of the mammalian cell assay, in words” value in series [11] is “poorly soluble”. For the same molecule, the “activity against Leishmania infantum from Fiocruz collection, in words” value in series [3] is recorded as “active”. For the same molecule, the IC50 in [3] (setting [16]) is over 25 µM. Further, in [5] (setting [18]), the IC50 was 7.8 µM. In addition, the IC50 in series [5] (setting [17]) is 8 ± 2 µM. In addition, in series [2], the IC50 is 25 ± 2 µM and the “SI J774.1/T. cruzi” value came to 3. Further, in series [7], the “active against the strains isolated from Uruguayan dogs, in words” value is “not” and the IC50 is over 25 µM.
Turning to `C/C(=N\NC(=S)Nc1ccccc1)[C@H]1CC[C@H]2[C@@H]3CC=C4CC(O)CC[C@]4(C)[C@H]3CC[C@]12C` (stereo partly drawn) [Compound 10, 1-(3β-Hydroxy-pregn-5-ene-20E-ylidene)-4-phenylthiosemicarbazone], the melting point fell in the range of 215 to 217 °C. Moreover, the “solubility in the conditions of the mammalian cell assay, in words” value in series [11] is recorded as “poorly soluble”. In addition, the IC50 in series [3] (setting [16]) is over 25 µM. In addition, the IC50 in series [5] (setting [17]) was 25 ± 3 µM. Also, in series [2], the IC50 is 25 ± 5 µM and the “SI J774.1/T. cruzi” value amounted to 1. Further, in series [7], the IC50 is over 25 µM.
`C=CCn1c(-c2ccc(Br)cc2)csc1=NN=C(C)C1CCC2C3CC=C4CC(O)CCC4(C)C3CCC12C` (stereo not drawn) [Compound 11, 1-(3β-Hydroxy-pregn-5-ene-20E-ylidene)-2-(3-allyl-4-(4-bromo-pheny)thiazol-2(3H)-ylidene)azine] showed a melting point of 179 to 183 °C. Besides, the IC50 in [3] (setting [16]) is over 25 µM. For the same molecule, in series [4], the IC50 was 16 ± 3 µM. The IC50 in series [5] (setting [17]) is over 25 µM. Further, the IC50 in series [6] worked out at 16 ± 3 µM. The IC50 in series [7] is over 25 µM.
Regarding `CSc1ccc(/C=C/C(=O)[C@H]2CCC3C4CC=C5C[C@@H](O)CC[C@]5(C)C4CC[C@@]32C)cc1` (stereo partly shown) [Compound 15], the IC50 in series [15] (setting [19]), in series [3] (setting [20]), in [5] (setting [21]) and in [6] was over 25 µM each time.
Consider `CC(/C=C/C(=O)[C@H]1CC[C@H]2[C@@H]3CC=C4CC(O)CC[C@]4(C)[C@H]3CC[C@]12C)=C\c1ccco1` (stereo partly drawn) [Compound 16, (2E,4E)-5-(furan-2-yl)-1-((8S,9S,10R,13S,14S,17S)-3-hydroxy-10,13-dimethyl-2,3,4,7,8,9,10,11,12,13,14,15,16,17-tetradecahydro-1H-cyclopenta[a]phenanthren-17-yl)-4-methylpenta-2,4-dien-1-one], for which the melting point was 110 to 113 °C. Moreover, the IC50 in [15] (Leishmania infantum) is over 25 µM. Further, the IC50 in [3] (Leishmania infantum, Table 1S, read-out: IC50 ± %SD (µM) promastigotes L. infantum) is over 25 µM. For the same molecule, in series [5] (setting [18]), the IC50 was over 25 µM. The IC50 in series [6] worked out at 23 ± 3 µM.
For the molecule `C[C@]12CC[C@H]3[C@@H](CC=C4CC(O)CC[C@@]43C)[C@@H]1CC[C@@H]2C(=O)/C=C/C=C/c1cccs1` (stereo partly drawn) [Compound 17, (2E,4E)-5-(thiofen-2-yl)-1-((8S,9S,10R,13S,14S,17S)-3-hydroxy-10,13-dimethyl-2,3,4,7,8,9,10,11,12,13,14,15,16,17-tetradecahydro-1H-cyclopenta[a]phenanthren-17-yl)penta-2,4-dien-1-one], the IC50 in [15] (setting [19]), in series [3] (setting [20]), in series [5] (setting [21]) and in series [6] was over 25 µM in each case.

These data come from paper PMC6832524, “A Nature-Inspired Design Yields a New Class of Steroids Against Trypanosomatids” (Molecules, 2019).
